Patent US8940789B2, “Neurite elongation agent, memory-improving agent and anti-Alzheimer agent comprising 4′-demethylnobiletin or 4′-demethyltangeretin as active ingredient, and process for production of the compound” (Fuji Sangyo Co., Ltd., priority 2009, dated 2015)

Assays:
[1] = test system: nitric oxide (NO), inducible nitric oxide synthase (iNOS), and cyclooxygenase-2 (COX-2); settings: synthesized demethylated compounds compared with nobiletin per se; Non Patent Literature 3; cited from earlier work
[2] = test system: Neuro2a; assay: Neurite elongation activity in Neuro2a neurocytes; type: cell-based; settings: 20 μM, observed under microscope two days after addition, compared with comparative controls nobiletin and tangeretin
Experimental: The conversion compound 1, i.e., an isolated product of 4′-demethylnobiletin, and the conversion compound 2, i.e., an isolated product of 4′-demethyltangeretin, both obtained in Example 3 above were used to study neurite elongation activities. Neuro2a was used as a neurocyte.
First, Neuro2a cells were cultured in DMEM medium containing 10% fetal bovine serum (FBS) in a 37° C. incubator with 5% CO2. The cells were subcultured every three days.
Then, the cells were inoculated in a 24′-well cell culture plate at 2×10^4/well using DMEM medium containing 5% FBS. Three hours after subculture, various test samples were added each at a concentration of 20 μM. 4′-demethylnobiletin (the product in Example 3), 4′-demethyltangeretin (the product in Example 3), nobiletin (a comparative control), and tangeretin (a comparative control) dissolved in ethanol were used as the test samples. As a control, only ethanol was used.
Then, two days after addition of the various test samples, neurite elongation activities were observed under microscope. FIG. 4 show picture images for comparing the neurite elongation activities exerted by the various test samples in cultures.

For `COc1c(OC)c(OC)c2c(=O)cc(-c3ccc(O)c(O)c3)oc2c1OC` [3′,4′-didemethylnobiletin], the “effect of preventing development of cancer by suppressing synthesis of NO, iNOS and COX-2” value (shortened to “effect … of NO, iNOS and COX-2”) [1] is given as “drastically higher effect than nobiletin”.

For `COc1ccc(-c2cc(=O)c3c(OC)c(OC)c(OC)c(OC)c3o2)cc1O` [3′-demethylnobiletin], the “effect … of NO, iNOS and COX-2” value [1] is given as “drastically higher effect than nobiletin”.

In the case of `COc1cc(-c2cc(=O)c3c(OC)c(OC)c(OC)c(OC)c3o2)ccc1O` [4′-demethylnobiletin], the neurite elongation activity [2] is listed as “significant neurite elongation activities” and the “effect … of NO, iNOS and COX-2” value [1] is listed as “drastically higher effect than nobiletin”.

For `COc1c(OC)c(OC)c2c(=O)cc(-c3ccc(O)cc3)oc2c1OC` [4′-demethyltangeretin], the neurite elongation activity [2] was “significant neurite elongation activities”.
